This is an account of results in patent EP0284180A1, “Prostaglandins E and anti ulcers containing same” (Kabushiki Kaisha Ueno Seiyaku Oyo Kenkyujo, priority 1987, dated 1988).

In one assay the test system is ileum. Briefly: Intestinal constriction effect, isolated ileum in Magnus tube. Also on record: species or system male Wister rat. The following applies: rat ileum, constriction relative to acetylcholine, ED50 class. As to the method: A male Wister rat (of 250 - 300g in weight) was struck to death, and immediately its carotid artery was cut to dehematize. An ileum portion located about 10 cm from the cecum was extracted, and after its contents were washed away with a Tyrode liquid, a 1.5 - 2 cm long part of it was cut off and hung in a Magnus tube.
The constriction of the ileum was brought to rest for 15 - 20 minutes until the ileum was allowed to be stabilized, and subsequently the ileum was constricted with […]/mt of acetylcholine. After constructions of same magnitude were had two times, the material to be tested was cumulatively administered at one- minute intervals.
Constrictions with the material tested were expressed in terms of ratios, based on constriction per 10 g/m t of acetylcholine, and values for ED50 were determined. + : EDso < 10^-6 M ±: 10^-4 M ≦ ED50 ≦ 10^-6 M -: 10^-4 M < ED50

For assay [1], the system named is confinement-stress induced ulcers through immersion in water. Briefly: Confinement-stress induced ulcers through immersion in water (hydrorestraint stress ulcer preventing effect). Type of assay: in vivo, male rats of the Crj : Wistar strain. The settings on record: for ulcer inhibiting effect: conclusion in words from Table 3; for inhibition at 1 mg/kg: dosage 1 mg/kg. On the procedure:
(§1) As test samples, we used the PGE as obtained in Examples 2 to 52 as described herein, 13,14-dihydro-15-keto-PGE2 (produced by Funakoshi & Co.) being employed as a control reference.
(§2) Each group of test animals used consisted of 8 to 10 male rats of the Crj : Wistar strain, weighing 180 to 230 g. Test animals were fasted for 24 hours before the oral administration of the test samples; in the case of development of confinement-stress induced ulcers through immersion in water, 10 minutes after oral administration of the test specimens, the aminals were confined in a stress cage developed by Univ. of Tokyo, then immersed up to the ensiform process of sternum in water at 23°C for 4 hours and sacrificed; in the case of formation of indomethacin-induced ulcers, shortly after the materials were given, animals were given indomethacin orally at a dose of 10 mg/kg and sacrificed after 5 hours.
(§3) The stomacks were taken out, followed by fixation with 1 % formalin, and incised along the greater curvature to carry out investigation under an illuminated magnifier for ulceration. The degree and extent of lesion and ulcer were rated based on the ulceration index being classified into the following five numerical categories: • 0: normal, with no lesion detected; • 1: bleeding or erosion of mucosa; • 2: development of less than 5 small ulcers (not greater than 2 mm in diameter); • 3: generation of not less than 5 small ulcers or a large ulcer (not less than 2 mm in diameter); • 4: generation of not less than 2 large ulcers.
(§4) On the basis of the criteria that the rats with the ulceration index of not less than "2", the ulcer inhibition rate (EDso) was calculated from ulcer-generation ratio in the control and the ratio of the test specimens.

The subject of another assay is trachea. Put plainly: Tracheal relaxation, isolated tracheal rings constricted with histamine. Also on record: species or system male gunea pig. The settings on record: guinea pig trachea, inhibition of constriction under histamine 5.4 x 10^-4 M, IC50 class, read-out: Tracheal relaxation effect. On the procedure: A male gunea pig (of about 300 g in weight) was struck to death, and its artery was cut to dehematize. Its trachea, after having been extracted, was cut open lengthwise on the opposite side to the trachea smooth muscle, and seven tracheal rings were connected by string in a chain-like pattern, same being hung in a Magnus tube.
Trachea was brought to rest for 60 - 90 minutes and until tracheal equilibrium was reached. Thereafter, 5.4 x 10 ^-4 M of histamine was administered in such manner that it was cumulatively administered at 6 minutes' intervals after a constriction peak was reached. Tracheal relaxation with the material tested was expressed in terms of ratio of constrictional inhibition under histamine administering, and values for IC50 were determined. + : IC50 < 10^-7 M ± : 10^-5 M ≦ IC50 ≦ 10^-7 M -: 10^-5 M < IC50

A further assay relates to uterus. Put plainly: Uterine constriction, isolated uterus in Magnus tube. Also on record: species or system female rat. The following applies: rat uterus, constriction relative to 1 mU oxytocin = 100, EC50 class; read-out: Uterus constriction effect. On the procedure: A female rat (of 150g in weight) was dehematized to death, and its uterus was taken out, which was cut to a length of 1.5 - 2.5 cm. The cut uterus was hung in a magnus tube. The uterus was constricted several times with 1 mU Oxytocin. After stable uterine movement was obtained, the material to be tested was independently administered. Constrictions with the material were expressed in terms of ratios based on constriction of 1 mU of oxytocin = 100, and values of EC50 were determined on the following standards. +:EC50 < 10^-7 M ±:10^-5 M ≦ EC50 ≦ 10^-7 M -: 10^-5 M < ECso

Assay [2] has as its system indomethacin-induced ulcers. Briefly: Indomethacin-induced ulcers (indomethacin ulcer preventing effect). The following applies: rats; for ED50: ulcer inhibition rate (Table 2); for Ulcer index (aver. ± SE): indomethacin 10 mg/kg oral ulcer, index 0-4. Type of assay: in vivo, male rats of the Crj : Wistar strain. On the procedure: as §1, §2, §3, §4
The mark [3] stands for this setting: Rattus norvegicus, po, hydrorestraint stress-ulcer preventing effect, procedure of Test Example 1 (Table 3), read-out: Ulcer inhibiting effect ED50.
[4] abbreviates: Rattus norvegicus, stress ulcer, rats, oral, read-out: Inhibition factor (%).
Setting [5] is: Rattus norvegicus, stress ulcer, rats, oral, ulcer inhibition rate, ulceration index not less than 2 counted (Table 1), read-out: ED50.
Setting [6] is: Rattus norvegicus, indomethacin ulcer, oral, dosage 3 mg/kg, read-out: Inhibition factor (%).
Where [7] appears, read: Rattus norvegicus, indomethacin ulcer, oral.

Read-outs that look alike come from different tables or passages of the source. Bounds are passed on as bounds.

The term ED50 denotes the dose at which the effect has come halfway, by size or by number of responders. `CCCCCC(=O)CC[C@H]1[C@H](O)CC(=O)[C@@H]1C/C=C\CCCC(=O)OCC` [Material (3), 13, 14-dihydro-15-keto-PGE2 ethyl ester]: the figures for the EC50 in the assay on ileum and with uterus were > 100000 nM and > 10000 nM, respectively. The ED50 in assay [1] (setting [3]) is 1.5 mg/kg. In addition, the ulcer inhibiting effect entry in assay [1] was “a high degree of ulcer inhibiting effect”. In addition, in the assay on trachea, the IC50 is > 10000 nM.

Take `CCCCCC(=O)CC[C@H]1[C@H](O)CC(=O)[C@@H]1C/C=C\CCCC(=O)O` [Material (1), 13, 14-dihydro-15-keto-PGE2, reference compound]: the results for the EC50 with ileum and in the assay with uterus were > 100000 nM and 100 to 10000 nM, respectively. Also, the ED50 in assay [1] (setting [3]) was > 20 mg/kg. Also, the ulcer inhibiting effect entry in assay [1] is given as “no pharmacological or physiological effect”. Besides, in assay [1] (conclusion in words from Tables 1 and 2), the antiulcerative effect entry is given as “no antiulcerative effect”. In addition, the IC50 with trachea (Cavia porcellus) is 100 to 10000 nM.

Turning to `CCCCC[C@H](O)/C=C/[C@H]1[C@H](O)CC(=O)[C@@H]1C/C=C\CCCC(=O)OCC` [B], the figures for the EC50 with ileum and with uterus were < 1000 nM and 100 to 10000 nM, respectively. Moreover, the ED50 in assay [1] (setting [3]) stood at 0.4 mg/kg. For the same compound, the IC50 in the assay with trachea is < 100 nM.

As usually defined, the inhibition is the change of the read-out against control, counted positive when it falls. Take `CCCCCC(=O)CC[C@H]1[C@H](O)CC(=O)[C@@H]1CC(=O)CCCCC(=O)OCC` (racemic) [(11)]: the inhibition at 1 mg/kg in assay [1] (setting [4]) was determined as 25%. Moreover, the inhibition at 3 mg/kg in assay [1] (Rattus norvegicus, stress ulcer, rats, oral, dosage 3 mg/kg, read-out: Inhibition factor (%)) turned out to be 57.1%; in assay [2] (setting [6]), 0%. In addition, the inhibition at 10 mg/kg amounted to 85.7% in assay [1] (Rattus norvegicus, stress ulcer, rats, oral, dosage 10 mg/kg, read-out: Inhibition factor (%)) and 50% in assay [2] (Rattus norvegicus, indomethacin ulcer, oral, dosage 10 mg/kg, read-out: Inhibition factor (%)). The 50% effective dose (ED50) in assay [1] (setting [5]) was 2.4 mg/kg; in assay [2] (setting [7]), 10 mg/kg. Moreover, the “Ulcer index (aver. ± SE)” value in assay [2] (dosage 3 mg/kg) was determined as 2.6±0.3; in assay [2] (dosage 10 mg/kg), 2.0±0.2.

Consider `CCCCCC(=O)CC[C@H]1[C@H](O)CC(=O)[C@@H]1CC(=O)CCCCC(=O)OCC` [(9)], for which the inhibition at 0.3 mg/kg in assay [1] (Rattus norvegicus, stress ulcer, rats, oral, dosage 0.3 mg/kg, read-out: Inhibition factor (%)) worked out at 37.5%. For the same compound, the inhibition at 1 mg/kg in assay [1] (setting [4]) worked out at 75%; in assay [2] (Rattus norvegicus, indomethacin ulcer, oral, dosage 1 mg/kg, read-out: Inhibition factor (%)), 37.5%. Further, the values for the ED50 in assay [1] (setting [5]) and in assay [2] (setting [7]) were 0.45 mg/kg and 3 mg/kg, respectively. Also, the inhibition at 3 mg/kg in assay [2] (setting [6]) amounted to 50.5%. The figures for the “Ulcer index (aver. ± SE)” value in assay [2] (dosage 1 mg/kg) and in assay [2] (dosage 3 mg/kg) were 2.1±0.3 and 1.5±0.3, respectively.

For the compound `CCCCC[C@H](O)/C=C/[C@H]1[C@H](O)CC(=O)[C@@H]1C/C=C\CCCC(=O)O` [A], the EC50 with ileum was < 1000 nM; with uterus, < 100 nM. Further, the ED50 in assay [1] (setting [3]) was found to be 0.5 mg/kg. For the same compound, in the assay with trachea, the IC50 was < 100 nM.

Turning to `CCCCCC(=O)CC[C@H]1[C@H](O)CC(=O)[C@@H]1C/C=C\CCCC(=O)O` [(1)], the inhibition at 20 mg/kg in assay [1] (Rattus norvegicus, stress ulcer, rats, oral, dosage 20 mg/kg, read-out: Inhibition factor (%)) was determined as 6.3%; in assay [2] (Rattus norvegicus, indomethacin ulcer, oral, dosage 20 mg/kg, read-out: Inhibition factor (%)) it was 4%. Further, the median effective dose (ED50) in assay [1] (setting [5]) and in assay [2] (setting [7]) was > 20 mg/kg throughout. Further, the “Ulcer index (aver. ± SE)” value in assay [2] (dosage 20 mg/kg) came to 2.4±0.4.
